pIC50: −log10 of the molar value. “Also recorded” adds a separate entry of the source.
Key:
[1] = in rodents; cited from earlier work
[2] = Stability in plasma (Example C); type: in vitro ADME, rat; details: 37°C, 5-8 hours, reverse phase HPLC
Method: Methods: Compounds were incubated in plasma at 37°C, and aliqouts removed at appropriate time points over the course of 5-8 hours. The aliquots were extracted with 1.5 volumes of methanol and clarified by centrifugation. Supernatants were then evaporated to dryness and the residues reconstituted with 100 µL of isotonic saline and then analyzed by reverse phase HPLC.

Rat liver microsomes = details: linear over a 5 hour reaction period, equimolar products
Description: 1.1 was evaluated for microsome-catalyzed conversion to parent compound 2-{5-[9-(2-Phenylethyl)-8-adeninyl]} furanylphosphonic acid and phenol, an expected byproduct of the reaction.
Methods: Rat liver microsomes were prepared as described in Example I. Reaction conditions, sample processing, and HPLC analysis were as described in Example D. Phenol was identified by HPLC by its retention time and spectral characteristics relative to an authentic standard.

[3] = tested on: glucose production in isolated rat hepatocytes; assay: Inhibition of glucose production in rat hepatocytes (Example J); type: cell-based; details: 1 hour, lactate 10 mM / pyruvate 1 mM
Description: Select prodrugs of FBPase inhibitors were tested for inhibition of glucose production in isolated rat hepatocytes.
After a 10 minute equilibration period, lactate and pyruvate were added to 10 mM and 1 mM concentrations, respectively. Addition of gluconeogenic substrates was immediately followed by that of appropriate concentrations of test compound. After 1 hour, an aliquot (0.25 ml) was removed, transferred to an Eppendorf tube and centrifuged. The supernatant (50 µl) was then assayed for glucose content using a Glucose Oxidase kit (Sigma Chemical Co.) as per the manufacturer's instructions.

isolated rat hepatocytes [4] = assay: Activation to parent compound in isolated rat hepatocytes (Example I); type: cell-based; details: 100 µM prodrug, peak within 15 minutes of addition
Description: An ODS column was used for analysis. […] Detection was at 310 nm.

[5] = tested on: microsomal fraction of human liver; assay: Activation by human liver microsomes (Example E); type: in vitro ADME; details: 250 µM prodrug, 37°C, NADPH-generating system
Description: 7.1, 1.3, and 30.1 were tested for conversion to their respective parent compounds by the microsomal fraction of human liver.

[6] = tested on: microsomal fraction of rat liver; assay: Activation by rat liver microsomes (Example D); type: in vitro ADME; details: 100 µM 7.1, 37°C; in the presence, but not in the absence of, NADP+; rate linearly dependent on microsomal protein
Description: The pellet was resuspended in homogenization buffer and recentrifuged.
Reactions were carried out at 37°C.
Reactions are monitored spectrophotometrically at 340 nm.

isolated rat hepatocytes [7] = assay: Active drug metabolites formed after prodrug activation in isolated rat hepatocytes (Example K); details: for Product concentration nmoles/g cells (PMEApp): time point 4h
Method: Methods: Hepatocytes were prepared and incubated as described in Example I. 28.4 and 30.1 and their respective parent compounds, PMEA and ara-AMP, were dissolved in DMSO or methanol to yield 10 mM stock solutions, and then diluted into the cell suspension to yield a final concentration of 100 µM. At appropriate time points over the course of 2-4 hours, aliquots of the cell suspension were removed and spun through a silicon/mineral oil layer into 10% perchloric acid. The cell extracts in the acid layers were neutralized by the addition of 0.3 volumes of 3M KOH/3M KHCO3, and the extract was then centrifuged, filtered (0.2 micron filter) and loaded onto an anion exchange HPLC column equilibrated with 70% A (10 mM ammonium phosphate pH 3.5, 6% ETOH) and 30% B (1 M ammonium phosphate pH 3.5, 6% ETOH). Ara-ATP and PMEApp were eluted with a gradient to 80% B. Detection was at 254 nm.

[8] = Hepatic PMEA-diphosphate and plasma PMEA after intravenous dosing (Example P); type: in vivo, rat; details: 10 mg/kg PMEA equivalents i.v.
recombinant CYP3A4 = assay: Activation by recombinant CYP3A4 (Example G); type: in vitro ADME; details: 28.4 at 100 µM, 37°C, NADPH dependent, linear for 30 minutes
Description: Activation of 30.1 and 28.4 was evaluated in reactions containing microsomes from baculovirus-infected insect cells co-expressing recombinant CYP3A4 and cytochrome p450 reductase (Panvera Corp., Madison, WI).
Methods: Reaction mixture composition was similar to that described in Example E. Reactions were terminated by addition of methanol to a final concentration of 60%, and products typically analyzed by HPLC with use of a YMC reverse phase C8 column (250 x 4.6 mm). […] The effluent was monitored at 254 nm.

[9] = intravenous administration to human patients; cited from earlier work
[10] = Liver ara-ATP and plasma/urine ara-hypoxanthine after intravenous dosing (Example O); type: in vivo, rat
Description: The temporal profile of ara-hypoxanthine and ara-ATP generation following intravenous administration of 30.1 and free ara-AMP was compared in the rat.
Method: 30.1 and ara-AMP (Sigma) were administered to normal, fasted rats intravenously (in saline) via tail vein catheters. At appropriate time points following drug a administration, animals were lightly anesthetized with halothane. The peritoneal cavity was then opened and a blood sample was obtained from the abdominal vena cava and the liver freeze-clamped and excised.
The blood samples were heparinized and plasma was prepared. Plasma samples (100 µL) were mixed with 4 N perchloric acid (40 µL), vortexed, and then clarified by centrifugation. The supernatants were analyzed for ara-hypoxanthine by HPLC with use of a Beckman Ultrasphere ODS column (4.6 x 150 mm). The column was eluted with 100 mM acetic acid at a flow rate of 1.0 mL/min. The eluent was monitored by UV absorbance at 254 nm.
Livers were immediately homogenized in 3 volumes of 10% perchloric acid (w/w), and the extracts clarified by centrifugation at 2500 x g (5 minutes). The resulting supernatants were removed and neutralized with 0.3 volumes of 3M KOH/ 3M KHCO3. The neutralized liver extracts were then spun in an Eppendorf microfuge at 10,000 rpm (20 minutes, 4°C). The supernatants were analyzed for ara-ATP content by reverse phase HPLC (HP1050) using a Whatman Partisphere SA column (4.6 x 125 mm). A gradient from 0.3M ammonium phosphate buffer pH 3.5 to 0.8M ammonium phosphate pH 3.5 was run (1 ml/minute flow rate).
Renal excretion of araH following i.v. administration of 30.1 or ara-AMP was determined as described in Example Q.

[11] = i.v., over 2.5 minutes; cited from earlier work

**Q.** Which oral bioavailability [1] does the source give for `CC(C)(C)C(=O)OCOP(=O)(OCOC(=O)C(C)(C)C)C(CCCc1cccc(Oc2ccccc2)c1)S(=O)(=O)O` (centres unmarked) [BMS 188494] here?
**A.** The oral bioavailability was less than 2%.

**Q.** Which “metabolism / degradation in fresh rat plasma” value [2] does the source give for `Nc1ncnc2c1nc(-c1ccc(P3(=O)OC4CC(O)CC(C4)O3)o1)n2CCc1ccccc1` (centres unmarked) [Compound 1.1, 6-Amino-8-(5'-hydroxyl-1',3'-cyclohexyl)phosphonofuranyl-9-phenethyl purine] here?
**A.** The value was “not degraded; also recorded: no evidence of metabolism”.

**Q.** What about the “rate of generation of 2-{5-[9-(2-Phenylethyl)-8-adeninyl]}furanylphosphonic acid and phenol” value (Rat liver microsomes) of the same molecule?
**A.** Its value is 15 pmoles /mg microsomal protein/minute.

**Q.** And the pIC50 [3]?
**A.** The pIC50 was 4.11.

**Q.** With `CC(C)(C)Cn1c(-c2ccc(P3(=O)OC4CC(O)CC(C4)O3)o2)nc2c(N)ncnc21` (centres unmarked) [Compound 1.2, 6-Amino-8-(5'-hydroxyl-1',3'-cyclohexyl)phosphonofuranyl-9-neopentyl purine] as the molecule, how does the “metabolism / degradation in fresh rat plasma” value [2] read?
**A.** The value was “not degraded”.

**Q.** Which “peak intrahepatocyte levels of 6-Chloro-1-isobutyl-2-(2-Phosphono-5-furanyl)benzimidazole” value (isolated rat hepatocytes [4]) does the source give for `CC(C)Cn1c(-c2ccc(P3(=O)OCC(CO)CO3)o2)nc2ccc(Cl)cc21` (centres unmarked) [Compound 7.1, 6-Chloro-1-isobutyl-2-{5-[2'-(hydroxymethyl)-propan-1',3'-yl]phosphono-2-furanyl}benzimidazole] here?
**A.** Its value is “approximately 700 nmoles/g cells”.

**Q.** And the “rate of formation of parent compound” value [5]?
**A.** The value was 0.85 nmoles/mg microsomal protein/minute.

**Q.** And the “conversion to parent compound” value [6]?
**A.** Its value is “converted to parent compound”.

**Q.** What about the inhibition at 100 µM ([3]; Rattus norvegicus, Hepatocyte, read-out: % inhibition @ 100 µM, 100 µM) of the same molecule?
**A.** Its inhibition at 100 µM is 65%.

**Q.** And the pIC50 ([3]; Rattus norvegicus, Hepatocyte)?
**A.** The pIC50 was 4.32.

**Q.** With `CC(=O)OCC1COP(=O)(c2ccc(-c3nc4c(N)ncnc4n3CC(C)(C)C)o2)OC1` (centres unmarked) [Compound 7.5, 6-Amino-9-neopentyl-8-{5-[2'-(acetoxymethyl)-propan-1',3'-yl]phosphono-2-furanyl}purine] as the molecule, how does the pIC50 [3] read?
**A.** Its pIC50 is 4.89.

**Q.** With `Nc1ncnc2c1ncn2CCOCP1(=O)OCCC(c2ccncc2)O1` (centres unmarked) [Compound 28.4, 9-[2-(1-(4-Pyridyl)-1,3-propylphosphonomethoxy)ethyl]adenine] as the molecule, how does the “Product concentration nmoles/g cells (PMEApp)” value (isolated rat hepatocytes [7]; Dose 100 µM) read?
**A.** Its value is 169 nmoles/g cells.

**Q.** What about the PMEA-diphosphate in liver [8] of the same molecule?
**A.** The PMEA-diphosphate in liver was “readily detectable levels”.

**Q.** And the “Plasma PMEA levels relative to bisPOM-PMEA” value [8]?
**A.** The value was “greater than 10 fold lower”.

**Q.** And the “rate of formation of PMEA” value (recombinant CYP3A4)?
**A.** Its value is 3.1 ± 0.1 nmoles/ min/ nmole CYP3A4.

**Q.** For `Nc1ncnc2c1ncn2CCOCP(=O)(O)O` [PMEA, 9-(2-phosphonylmethoxyethyl) adenine, reference compound], which “Product concentration nmoles/g cells (PMEApp)” value (isolated rat hepatocytes [7]; Dose 250 µM) is on record?
**A.** The value was 120 nmoles/g cells.

**Q.** Which results are given for `Nc1ncnc2c1ncn2[C@@H]1O[C@H](COP(=O)(O)O)[C@@H](O)[C@@H]1O` [araAMP, reference compound]?
**A.** Product concentration nmoles/g cells (ara-ATP) (isolated rat hepatocytes [7]; Dose 100 µM, time point 2h): 212±0.6 nmoles/g cells; ara-AMP in plasma [9]: not detected in plasma; persistence of ara-hypoxanthine in plasma ([10]; ara-AMP i.v. at equivalent doses): 8 h; ara-hypoxanthine (araH) in plasma ([10]; i.v., 30.1 at 10 and 3 mg/kg, ara-AMP at equivalent doses): µmolar levels; plasma half-life of free ara-AMP relative to 30.1 ([10]; judged by inability to detect the compound in plasma): considerably shorter; drop of plasma ara-AMP levels [11]: greater than 90%

**Q.** Which PMEA-diphosphate in liver [8] does the source give for `CC(C)(C)C(=O)OCOP(=O)(COCCn1cnc2c(N)ncnc21)OCOC(=O)C(C)(C)C` [bisPOM-PMEA, reference compound] here?
**A.** Its PMEA-diphosphate in liver is “readily detectable levels”.

Reference: patent publication EP1060182B1, “NOVEL PRODRUGS FOR PHOSPHORUS-CONTAINING COMPOUNDS” (Metabasis Therapeutics, Inc., priority 1998, dated 1999)
